Here are results for eight compounds from US12668607B2, “Heterocyclic amide compound, preparation method therefor and use thereof” (SHANGHAI JEYOU PHARMACEUTICAL CO., LTD., priority 2019, dated 2026).

One test concerns THP1-Dual™ cells. The test is described as follows: THP-Dual in vitro binding assay (THP1-Dual reporter cells, Lucia luciferase/QUANTI-Luc). The format is cell-based, human. The note with it: 30 min compound exposure, wash, 18 h incubation, IF-α/β activity by QUANTI-Luc. The text has this:
The THP1-Dual™ cells used in the assay (InvivoGen, Catalog code: thpd-nfis) were constructed by stable integration of two inducible reporter genes in the human monocyte-like cell line THP1. The promoter sequence of the secretory embryo alkaline phosphatase (SEAP) reporter gene comprised an IFN-β basal promoter, 5 copies of NF-κB coexpression transcriptional response elements (NF-κB consensus transcriptional response elements) at the upstream and 3 copies of c-Rel binding sites. The secreted luciferase (Lucia) reporter gene was driven by 5 interferon-stimulated response elements (IFN-stimulated response elements) and a basal promoter of ISG54, thus making it possible to study two major downstream signaling pathways of STING simultaneously: the NF KB pathway was studied by assaying the SEAP activity; and the IRF pathway was studied by assessing the activity of Lucia luciferase.
To each well of a 96-well plate were added 20 μL of reference compounds or the compounds to be detected followed by the addition of 180 μL of THP1-Dual™ cell-containing FBS-free RPMI-1640 culture medium (about 90,000 cells/well). After incubating at 37° C. for 30 min under 5% CO2, the plate was centrifuged at 1000 rpm for 10 min, the supernatant was discarded, and the plate was washed twice with RPMI-1640 at 200 μL/well, and incubated for 18 h with RPMI-1640 at 200 µL/well. IF-α/β activity was quantified using QUANTI-Luc™ prepared and used according to the manufacturer's instructions.

For a further test, the target named is T1, human STING protein (Homo sapiens, UniProt Q86WV6, H232R).
T1 construct: from the 140th amino acid to the 379th amino acid; 6His-SUMO (N, cleaved yes); made in house
The test is described as follows: STING in vitro binding assay (fluorescence polarization, FP affinity assay). The note with it: competition with 30 nM fluorescein-labeled c-di-GMP, 10 μM recombinant human wild-type STING C-terminal protein (aa 140-379), 30 min room temperature. Here is the method: Fluorescence polarization assay (FP assay) was used to detect the affinities of compounds to a human STING protein. The reaction system contained a certain amount of fluorescein labeled C-di-GMP and compounds to be detected with different concentrations, and when the C-terminal protein of the recombinant human STING was added, the two small molecules were competitively bound with the protein. The bound fluorescein-labeled c-di-GMP rotated slowly in the liquid phase, and at this point, the degree of fluorescence polarization detected was also high. The fluorescence polarization degree was in inverse relation with the concentrations and the affinities of the compounds to be detected. By detecting the magnitude of the polarized light in the reaction system, the affinities of the compounds to be detected to human STING could be accurately known.
The N-terminal of the recombinant STING protein was a 6His-SUMO sequence to facilitate correct protein folding and purification, and after protease cleavage, the C-terminal STING was used for FP assay.
In FP assay, a 384-well plate was used, with the fluorescein-labeled c-di-GMP with a final concentration of 30 nM, 10 μM human STING protein, and either reference compounds with different concentrations or the compounds to be detected added into 10 μL of the reaction system each well. The plate was centrifuged at 1000 g for 1 min, incubated at room temperature for 30 min in the dark and read with Envision.

The next test concerns colon cancer cells CT26. The test is described as follows: Drug efficacy evaluation in CT26 syngeneic mouse model. Format: in vivo, Balb/C mice. The note with it: CT26 subcutaneous tumors. Here is the method:
The compound efficacy evaluation was carried out by a CT26 syngeneic mouse model in this experiment. 3E5 colon cancer cells CT26 (ATCC-CRL-2638) were inoculated subcutaneously into 6-8 week-old Balb/C mice (Shanghai Lingchang Biotechnology Co., Ltd.), and the mice were randomly divided grouped, 6 mice per group when the tumor volume reached 100 mm^3. Intratumoral administration was performed on day 1 after grouping. Compound 1 was administered at a dose of 1 μg per mouse, 0.1 μg per mouse and 0.01 μg per mouse, respectively, for each group. Tumor volume measurements were taken three times a week after the start of administration. The calculation formula for tumor volume was: V=0.5a×b^2, with a and b representing the long and short diameters of the tumor, respectively. Each point is the mean and standard error of mean (SEM) of the tumor volume. Differences between control (saline) and administered groups were statistically analyzed using two-way ANOVA (statistical differences on day 15: Prism 8, ****p<0.0001).

T1 sequence (Q86WV6 140-379 H232R): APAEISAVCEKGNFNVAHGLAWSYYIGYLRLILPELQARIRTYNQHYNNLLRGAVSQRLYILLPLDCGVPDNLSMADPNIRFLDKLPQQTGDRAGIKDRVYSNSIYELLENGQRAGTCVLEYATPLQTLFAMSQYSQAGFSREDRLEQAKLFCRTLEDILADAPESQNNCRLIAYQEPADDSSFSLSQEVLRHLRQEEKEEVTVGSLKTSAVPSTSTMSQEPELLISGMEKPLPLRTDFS

For `CCn1nc(C)cc1C(=O)/N=c1/[nH]c2cc(C(N)=O)cc(OCCCN3CCOCC3)c2n1C/C=C/Cn1/c(=N/C(=O)c2cc(C)nn2CC)[nH]c2cc(C(N)=O)cc(OCCCO[C@H]3[C@@H](OC)O[C@H](CO)[C@@H](O)[C@@H]3O)c21` [Compound 4], in the test with THP1-Dual™ cells (Homo sapiens), the half-maximal effective concentration (EC50) – broadly, the concentration needed to bring the measured effect to its halfway point – came out at 520 nM. The half-maximal inhibitory concentration (IC50) (as a rule, the concentration that inhibits the measured activity by half) on human STING protein was 1600 nM.
For `Nc1ncnc2c1ncn2[C@@H]1O[C@@H]2COP(O)(=S)O[C@@H]3C(O)[C@@H](COP(O)(=S)O[C@H]2[C@H]1O)O[C@H]3n1cnc2c(N)ncnc21` (some centres unmarked) [ML RR-S2 CDA, reference compound], in the test with THP1-Dual™ cells, the EC50 stood at 18200 nM.
`CCn1nc(C)cc1C(=O)/N=c1/[nH]c2cc(C(N)=O)cc(OC)c2n1C/C=C/Cn1/c(=N/C(=O)c2cc(C)nn2CC)[nH]c2cc(C(N)=O)cc(OCCCO[C@H]3[C@H](OC)O[C@H](CO)[C@H]3O)c21` [Compound 3] returned a concentration for a half-maximal effect (EC50) with THP1-Dual™ cells (Homo sapiens) of 40 nM. Besides, the IC50 at human STING protein is 3700 nM.
In the case of `CCn1nc(C)c2c1C(=O)/N=C1\Nc3cc(C(N)=O)cc(OCCCO[C@H]4[C@@H](OC)O[C@H](CO)[C@@H](O)[C@@H]4O)c3N1C/C=C/CN1/C(=N\C(=O)c3cc(C)nn3CCCCC2)Nc2cc(C(N)=O)cc(OC)c21` [Compound 5], the concentration giving a half-maximal response (EC50) in the test on THP1-Dual™ cells (Homo sapiens) stood at 60 nM. Besides, at human STING protein, the half-inhibitory concentration (IC50) was determined as 1500 nM.
In the test on THP1-Dual™ cells (Homo sapiens), `CCn1nc(C)cc1C(=O)/N=c1/[nH]c2cc(C(N)=O)cc(OC)c2n1C/C=C/Cn1/c(=N/C(=O)c2cc(C)nn2CC)[nH]c2cc(C(N)=O)cc(OCCCOC(=O)[C@@H](N)C(C)C)c21` [Compound 2] showed a concentration for a half-maximal effect (EC50) of 8 nM. For the same compound, on human STING protein, the 50% inhibitory concentration (IC50) was 1700 nM.
The corresponding values for `CCn1nc(C)cc1C(=O)/N=c1/[nH]c2cc(C(N)=O)cc(OC)c2n1C/C=C/Cn1/c(=N/C(=O)c2cc(C)nn2CC)[nH]c2cc(C(N)=O)cc(OCCCN3CC4(COC4)C3)c21` [Compound 7] are 80 nM and 3800 nM.
The corresponding values for `CCn1nc(C)cc1C(=O)/N=c1/[nH]c2cc(C(N)=O)cc(OC)c2n1C/C=C/Cn1/c(=N/C(=O)c2cc(C)nn2CC)[nH]c2cc(C(N)=O)cc(OCCN3CCCC4(CCNC4)C3)c21` (centres unmarked) [Compound 6] are 2100 nM and 2200 nM.
For `CCn1nc(C)cc1C(=O)/N=c1/[nH]c2cc(C(N)=O)cc(OC)c2n1C/C=C/Cn1/c(=N/C(=O)c2cc(C)nn2CC)[nH]c2cc(C(N)=O)cc(OCCCO[C@H]3[C@@H](OC)O[C@H](CO)[C@@H](O)[C@@H]3O)c21` [Compound 1], the 50% effective concentration (EC50) with THP1-Dual™ cells (Homo sapiens) was 21 nM. The “tumor growth speed compared with the control group” value with colon cancer cells CT26 (intratumoral administration day 1, 1, 0.1 and 0.01 μg per mouse, two-way ANOVA day 15 ****p<0.0001 vs saline) is reported as “significantly slowed down”. Besides, the “inhibition of tumor growth in mice (dose relation)” value in the test with colon cancer cells CT26 (intratumoral, 1, 0.1 and 0.01 μg per mouse) is reported as “dose-dependent”. Moreover, the IC50 at human STING protein amounted to 400 nM.
